Columns and labels:
Rho kinase 1 = Rho kinase 1 (Homo sapiens, UniProt Q13464); experiment: In vitro Rho kinase inhibitory activity assay (ADP-Glo kit, Myelin Basic Protein substrate); type: biochemical; conditions: 10 μM ATP, 25° C., read-out: ROCK1 inhibitory activity (Ki, range of activity)
Outline: (§1)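 ADP-Glo luminescence read-out. Enzyme (ROCK1 or ROCK2) + compound 30 min, then 10 μM ATP final, 1 h, 25 °C; 2.5 μM MBP peptide substrate, Tris pH7.5/MgCl2/BSA/DTT buffer, 1% DMSO. IC50 from variable-slope fit (0–100% fixed); Ki via Cheng-Prusoff.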

Rho kinase 2 = Rho kinase 2 (Homo sapiens, UniProt O75116); experiment: as above; type: biochemical; conditions: 10 μM ATP, 25° C., read-out: ROCK2 inhibitory activity (Ki, range of activity)
Rho kinase 2, sequence (O75116 whole entry): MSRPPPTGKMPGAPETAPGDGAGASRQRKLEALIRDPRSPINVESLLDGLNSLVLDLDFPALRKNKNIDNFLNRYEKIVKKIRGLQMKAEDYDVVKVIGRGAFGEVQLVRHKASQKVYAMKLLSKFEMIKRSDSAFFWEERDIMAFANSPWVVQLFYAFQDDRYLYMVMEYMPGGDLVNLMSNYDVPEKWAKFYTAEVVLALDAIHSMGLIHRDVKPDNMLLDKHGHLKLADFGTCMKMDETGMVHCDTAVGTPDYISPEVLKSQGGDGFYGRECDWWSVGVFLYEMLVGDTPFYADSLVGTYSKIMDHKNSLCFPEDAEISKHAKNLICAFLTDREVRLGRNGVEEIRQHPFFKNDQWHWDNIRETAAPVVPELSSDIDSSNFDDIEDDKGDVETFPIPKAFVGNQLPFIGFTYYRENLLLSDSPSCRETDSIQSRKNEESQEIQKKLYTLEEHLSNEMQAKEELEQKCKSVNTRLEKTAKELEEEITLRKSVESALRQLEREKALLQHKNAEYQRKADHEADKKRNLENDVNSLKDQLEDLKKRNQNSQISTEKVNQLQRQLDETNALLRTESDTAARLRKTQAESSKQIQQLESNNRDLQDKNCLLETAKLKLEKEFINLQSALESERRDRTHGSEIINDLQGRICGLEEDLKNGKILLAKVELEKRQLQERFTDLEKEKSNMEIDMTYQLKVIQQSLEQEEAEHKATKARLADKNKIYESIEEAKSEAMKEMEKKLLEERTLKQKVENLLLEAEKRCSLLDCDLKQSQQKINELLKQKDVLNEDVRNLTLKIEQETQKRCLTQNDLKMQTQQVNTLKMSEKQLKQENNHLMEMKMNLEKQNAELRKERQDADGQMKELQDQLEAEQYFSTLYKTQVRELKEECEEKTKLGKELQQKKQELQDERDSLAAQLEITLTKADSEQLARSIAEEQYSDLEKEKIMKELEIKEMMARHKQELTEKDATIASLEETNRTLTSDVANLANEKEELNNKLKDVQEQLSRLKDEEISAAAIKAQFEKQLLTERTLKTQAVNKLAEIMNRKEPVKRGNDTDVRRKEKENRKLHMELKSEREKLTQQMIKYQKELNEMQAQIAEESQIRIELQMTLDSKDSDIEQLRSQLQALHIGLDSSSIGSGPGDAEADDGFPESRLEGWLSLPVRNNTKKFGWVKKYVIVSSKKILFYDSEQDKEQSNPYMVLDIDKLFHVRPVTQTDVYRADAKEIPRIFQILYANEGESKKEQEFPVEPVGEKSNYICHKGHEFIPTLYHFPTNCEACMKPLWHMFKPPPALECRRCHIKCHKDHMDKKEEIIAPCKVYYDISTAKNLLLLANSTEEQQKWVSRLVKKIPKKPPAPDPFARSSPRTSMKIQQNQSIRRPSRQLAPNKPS
Outline: as §1

Rho kinase 1, sequence (Q13464 whole entry): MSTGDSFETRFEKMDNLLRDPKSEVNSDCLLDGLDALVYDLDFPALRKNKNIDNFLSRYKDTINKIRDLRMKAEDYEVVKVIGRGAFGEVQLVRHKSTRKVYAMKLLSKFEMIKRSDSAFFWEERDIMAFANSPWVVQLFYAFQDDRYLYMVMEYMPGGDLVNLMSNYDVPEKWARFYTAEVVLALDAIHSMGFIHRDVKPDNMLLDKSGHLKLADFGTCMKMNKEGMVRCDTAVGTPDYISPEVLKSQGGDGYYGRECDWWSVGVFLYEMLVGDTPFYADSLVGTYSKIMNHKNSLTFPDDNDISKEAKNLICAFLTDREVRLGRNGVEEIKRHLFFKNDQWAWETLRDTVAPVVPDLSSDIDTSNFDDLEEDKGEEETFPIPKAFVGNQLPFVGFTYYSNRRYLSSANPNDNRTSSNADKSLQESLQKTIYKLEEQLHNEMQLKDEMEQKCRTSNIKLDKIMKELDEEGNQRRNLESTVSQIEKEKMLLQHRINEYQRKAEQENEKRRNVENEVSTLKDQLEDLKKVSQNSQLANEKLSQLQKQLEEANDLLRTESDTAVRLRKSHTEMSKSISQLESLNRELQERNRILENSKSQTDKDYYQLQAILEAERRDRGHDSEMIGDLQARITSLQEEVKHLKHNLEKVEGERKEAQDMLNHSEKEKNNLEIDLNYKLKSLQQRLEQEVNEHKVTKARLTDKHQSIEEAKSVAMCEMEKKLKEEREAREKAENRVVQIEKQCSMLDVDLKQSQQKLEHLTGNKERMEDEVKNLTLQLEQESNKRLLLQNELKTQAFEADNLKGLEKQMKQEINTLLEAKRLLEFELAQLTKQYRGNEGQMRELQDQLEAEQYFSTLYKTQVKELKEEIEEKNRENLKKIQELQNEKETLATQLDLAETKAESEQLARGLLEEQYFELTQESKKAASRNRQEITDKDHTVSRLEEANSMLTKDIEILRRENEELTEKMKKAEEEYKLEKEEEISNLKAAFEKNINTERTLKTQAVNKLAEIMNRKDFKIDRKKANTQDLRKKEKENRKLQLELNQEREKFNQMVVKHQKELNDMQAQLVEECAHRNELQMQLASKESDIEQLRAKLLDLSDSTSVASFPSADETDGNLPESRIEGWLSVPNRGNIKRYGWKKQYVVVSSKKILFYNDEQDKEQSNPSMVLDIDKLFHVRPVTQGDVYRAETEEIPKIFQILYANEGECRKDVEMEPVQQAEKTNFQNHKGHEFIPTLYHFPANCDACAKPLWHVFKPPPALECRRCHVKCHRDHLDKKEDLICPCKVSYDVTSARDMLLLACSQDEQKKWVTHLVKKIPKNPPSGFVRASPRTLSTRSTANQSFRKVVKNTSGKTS

| Structure (SMILES) | Ki (Rho kinase 1) | Ki (Rho kinase 2) |
| --- | --- | --- |
| CC1=C(C(=O)Nc2ccc3cnccc3c2)C(c2ccc(Br)cc2)n2nc(CO)cc2N1 (single isomer, unassigned) [Example 61A, 7-(4-bromophenyl)-2-(hydroxymethyl)-N-(isoquinolin-6-yl)-5-methyl-4,7-dihydropyrazolo[1,5-a]pyrimidine-6-carboxamide] | < 0.05 µM | < 0.05 µM |
| CCOC(=O)c1cc2n(n1)C(c1ccc(C)cc1)C(C(=O)Nc1ccc3[nH]ncc3c1)=C(C)N2 (stereo not shown) [Example 3, ethyl 6-((1H-indazol-5-yl)carbamoyl)-5-methyl-7-(p-tolyl)-4,7-dihydropyrazolo[1,5-a]pyrimidine-2-carboxylate] | < 0.05 µM | < 0.05 µM |
| CC1=C(C(=O)Nc2ccc3cnccc3c2)C(c2ccc(C(F)(F)F)c(F)c2)n2nc(C(=O)N(C)CCN3CCOCC3)cc2N1 (stereo not shown) [Example 83, 7-(3-fluoro-4-(trifluoromethyl)phenyl)-N6-(isoquinolin-6-yl)-N2,5-dimethyl-N2-(2-morpholinoethyl)-4,7-dihydropyrazolo[1,5-a]pyrimidine-2,6-dicarboxamide] | < 0.05 µM | < 0.05 µM |
| CC1=C(C(=O)Nc2ccc3[nH]ncc3c2)C(c2ccc(F)cc2)n2nc(Br)cc2N1 (stereo not shown) [Example 30, 2-bromo-7-(4-fluorophenyl)-N-(1H-indazol-5-yl)-5-methyl-4,7-dihydropyrazolo[1,5-a]pyrimidine-6-carboxamide] | < 0.05 µM | < 0.05 µM |
| CC1=C(C(=O)Nc2ccc3cnccc3c2)C(c2ccc(C(F)(F)F)c(F)c2F)n2nc(CO)cc2N1 (stereo not shown) [Example 56, 7-(2,3-difluoro-4-(trifluoromethyl)phenyl)-2-(hydroxymethyl)-N-(isoquinolin-6-yl)-5-methyl-4,7-dihydropyrazolo[1,5-a]pyrimidine-6-carboxamide] | < 0.05 µM | < 0.05 µM |
| CC1=C(C(=O)Nc2ccc3cnccc3c2)C(c2ccc(C(F)(F)F)cc2)n2nc(CO)cc2N1 (single isomer, unassigned) [Example 43A, 2-(hydroxymethyl)-N-(isoquinolin-6-yl)-5-methyl-7-(4-(trifluoromethyl)phenyl)-4,7-dihydropyrazolo[1,5-a]pyrimidine-6-carboxamide] | > 0.5 µM | 0.05 to 0.5 µM |
| CC1=C(C(=O)Nc2ccc3cnccc3c2)C(c2ccc(C(F)(F)F)c(F)c2)n2nc(NC(=O)COC3CCN(C)CC3)cc2N1 (stereo not shown) [Example 133, 7-(3-fluoro-4-(trifluoromethyl)phenyl)-N-(isoquinolin-6-yl)-5-methyl-2-(2-((1-methylpiperidin-4-yl)oxy)acetamido)-4,7-dihydropyrazolo[1,5-a]pyrimidine-6-carboxamide] | < 0.05 µM | < 0.05 µM |
| CCOC(=O)c1cc2n(n1)C(c1ccc(Cl)nc1)C(C(=O)Nc1ccc3[nH]ncc3c1)=C(C)N2 (stereo not shown) [Example 5, ethyl 6-((1H-indazol-5-yl)carbamoyl)-7-(6-chloropyridin-3-yl)-5-methyl-4,7-dihydropyrazolo[1,5-a]pyrimidine-2-carboxylate] | < 0.05 µM | < 0.05 µM |
| CC1=C(C(=O)Nc2ccc3cnccc3c2)C(c2ccc(C(F)(F)F)c(F)c2)n2nc(C(=O)N(C)CC3CCN(C)CC3)cc2N1 (stereo not shown) [Example 85, 7-(3-fluoro-4-(trifluoromethyl)phenyl)-N6-(isoquinolin-6-yl)-N2,5-dimethyl-N2-((1-methylpiperidin-4-yl)methyl)-4,7-dihydropyrazolo[1,5-a]pyrimidine-2,6-dicarboxamide] | < 0.05 µM | < 0.05 µM |
| CC1=C(C(=O)Nc2ccc3cnccc3c2)C(c2ccc(C(F)(F)F)c(F)c2)n2nc(CCN(C)C)cc2N1 (stereo not shown) [Example 37, 2-(2-(dimethylamino)ethyl)-7-(3-fluoro-4-(trifluoromethyl)phenyl)-N-(isoquinolin-6-yl)-5-methyl-4,7-dihydropyrazolo[1,5-a]pyrimidine-6-carboxamide] | < 0.05 µM | < 0.05 µM |
| CC1=C(C(=O)Nc2ccc3cnccc3c2)C(c2ccc(C(F)(F)F)c(F)c2)n2nc(NC(=O)CN3CCCC3)cc2N1 (stereo not shown) [Example 132, 7-(3-fluoro-4-(trifluoromethyl)phenyl)-N-(isoquinolin-6-yl)-5-methyl-2-(2-(pyrrolidin-1-yl)acetamido)-4,7-dihydropyrazolo[1,5-a]pyrimidine-6-carboxamide] | < 0.05 µM | < 0.05 µM |
| CCOC(=O)c1cc2n(n1)C(CC(C)C)C(C(=O)Nc1ccc3[nH]ncc3c1)=C(C)N2 (stereo not shown) [Example 13, ethyl 6-((1H-indazol-5-yl)carbamoyl)-7-isobutyl-5-methyl-4,7-dihydropyrazolo[1,5-a]pyrimidine-2-carboxylate] | 0.05 to 0.5 µM | 0.05 to 0.5 µM |
| CC1=C(C(=O)Nc2ccc3[nH]ncc3c2)C(c2ccc(F)cc2)n2ncc(Br)c2N1 (stereo not shown) [Example 22, 3-bromo-7-(4-fluorophenyl)-N-(1H-indazol-5-yl)-5-methyl-4,7-dihydropyrazolo[1,5-a]pyrimidine-6-carboxamide] | < 0.05 µM | < 0.05 µM |
| COc1ccccc1-c1cc2n(n1)C(c1ccc(F)cc1)C(C(=O)Nc1ccc3[nH]ncc3c1)=C(C)N2 (stereo not shown) [Example 21, 7-(4-fluorophenyl)-N-(1H-indazol-5-yl)-2-(2-methoxyphenyl)-5-methyl-4,7-dihydropyrazolo[1,5-a]pyrimidine-6-carboxamide] | 0.05 to 0.5 µM | 0.05 to 0.5 µM |
| CC1=C(C(=O)Nc2ccc3[nH]ncc3c2)C(c2ccc(F)cc2)n2nc(CO)cc2N1 (single isomer, unassigned) [Example 71A, 7-(4-fluorophenyl)-2-(hydroxymethyl)-N-(1H-indazol-5-yl)-5-methyl-4,7-dihydropyrazolo[1,5-a]pyrimidine-6-carboxamide] | < 0.05 µM | < 0.05 µM |
| CC1=C(C(=O)Nc2ccc3[nH]ncc3c2)C(c2ccc(C)cc2)n2nc(C(=O)O)cc2N1 (stereo not shown) [Example 74, 6-((1H-indazol-5-yl)carbamoyl)-5-methyl-7-(p-tolyl)-4,7-dihydropyrazolo[1,5-a]pyrimidine-2-carboxylic acid] | < 0.05 µM | < 0.05 µM |
| CCOC(=O)c1nn2c(c1C#N)NC(C)=C(C(=O)Nc1ccc3[nH]ncc3c1)C2c1ccc(C(F)(F)F)cc1 (stereo not shown) [Example 16, ethyl 6-((1H-indazol-5-yl)carbamoyl)-3-cyano-5-methyl-7-(4-(trifluoromethyl)phenyl)-4,7-dihydropyrazolo[1,5-a]pyrimidine-2-carboxylate] | < 0.05 µM | < 0.05 µM |
| CC1=C(C(=O)Nc2ccc3cnccc3c2)C(c2ccc(C(F)(F)F)c(F)c2)n2nc(CN3CCN(C)CC3)cc2N1 (single isomer, unassigned) [Example 96A, 7-(3-fluoro-4-(trifluoromethyl)phenyl)-N-(isoquinolin-6-yl)-5-methyl-2-((4-methylpiperazin-1-yl)methyl)-4,7-dihydropyrazolo[1,5-a]pyrimidine-6-carboxamide] | 0.05 to 0.5 µM | 0.05 to 0.5 µM |
| CC1=C(C(=O)Nc2ccc3cnccc3c2)C(c2ccc(C(F)(F)F)c(F)c2)n2nc(C(=O)NCCN(C)C)cc2N1 (stereo not shown) [Example 79, N2-(2-(dimethylamino)ethyl)-7-(3-fluoro-4-(trifluoromethyl)phenyl)-N6-(isoquinolin-6-yl)-5-methyl-4,7-dihydropyrazolo[1,5-a]pyrimidine-2,6-dicarboxamide] | < 0.05 µM | < 0.05 µM |
| CC1=C(C(=O)Nc2ccc3cnccc3c2)C(c2ccc(C(F)(F)F)c(F)c2)n2nc(C(=O)N(C)C3CCN(C)CC3)cc2N1 (stereo not shown) [Example 88, 7-(3-fluoro-4-(trifluoromethyl)phenyl)-N6-(isoquinolin-6-yl)-N2,5-dimethyl-N2-(1-methylpiperidin-4-yl)-4,7-dihydropyrazolo[1,5-a]pyrimidine-2,6-dicarboxamide] | < 0.05 µM | < 0.05 µM |
| CCOC(=O)c1cc2n(n1)C(c1ccc(C(F)(F)F)cc1)C(C(=O)Nc1ccc3cnccc3c1)=C(C)N2 (stereo not shown) [Example 1, ethyl 6-(isoquinolin-6-ylcarbamoyl)-5-methyl-7-(4-(trifluoromethyl)phenyl)-4,7-dihydropyrazolo[1,5-a]pyrimidine-2-carboxylate] | < 0.05 µM | < 0.05 µM |
| CC1=C(C(=O)Nc2cc3cn[nH]c3cc2F)C(c2ccc(C(F)(F)F)c(F)c2)n2nnnc2N1 (single isomer, unassigned) [Example 40A, N-(6-fluoro-1H-indazol-5-yl)-7-(3-fluoro-4-(trifluoromethyl)phenyl)-5-methyl-4,7-dihydrotetrazolo[1,5-a]pyrimidine-6-carboxamide] | < 0.05 µM | < 0.05 µM |
| CC1=C(C(=O)Nc2ccc3cnccc3c2)C(C2CCC(C(F)(F)F)CC2)n2nc(CN(C)C)cc2N1 (stereo not shown) [Example 120, 2-((dimethylamino)methyl)-N-(isoquinolin-6-yl)-5-methyl-7-(4-(trifluoromethyl)cyclohexyl)-4,7-dihydropyrazolo[1,5-a]pyrimidine-6-carboxamide] | < 0.05 µM | < 0.05 µM |
| COCc1cc2n(n1)C(c1ccc3cc[nH]c3c1)C(C(=O)Nc1ccc3cnccc3c1)=C(C)N2 (stereo not shown) [Example 38, 7-(1H-indol-6-yl)-N-(isoquinolin-6-yl)-2-(methoxymethyl)-5-methyl-4,7-dihydropyrazolo[1,5-a]pyrimidine-6-carboxamide] | < 0.05 µM | < 0.05 µM |
| CCOC(=O)c1cc2n(n1)C(c1ccc(C(F)F)c(F)c1)C(C(=O)Nc1ccc3cnccc3c1)=C(C)N2 (stereo not shown) [Example 115, ethyl 7-(4-(difluoromethyl)-3-fluorophenyl)-6-(isoquinolin-6-ylcarbamoyl)-5-methyl-4,7-dihydropyrazolo[1,5-a]pyrimidine-2-carboxylate] | < 0.05 µM | < 0.05 µM |
| CC1=C(C(=O)Nc2ccc3cnccc3c2)C(c2ccc(Br)c(F)c2)n2nc(CO)cc2N1 (stereo not shown) [Example 55, 7-(4-bromo-3-fluorophenyl)-2-(hydroxymethyl)-N-(isoquinolin-6-yl)-5-methyl-4,7-dihydropyrazolo[1,5-a]pyrimidine-6-carboxamide] | < 0.05 µM | < 0.05 µM |

— US10584128B2, “Bicyclic dihydropyrimidine-carboxamide derivatives as Rho-Kinase inhibitors” (CHIESI FARMACEUTICI S.p.A., priority 2016, dated 2020)
